Measured values from ChEMBL document CHEMBL4507279, “Data for DCP probe BI-9627” (2021).

Key:
[1] = target: Phosphatidylinositol 3-kinase catalytic subunit type 3 (Homo sapiens) (UniProt Q8NEB9); conditions: Compound concentration 1000.0 nM
[2] = target: NUAK family SNF1-like kinase 2 (Homo sapiens) (UniProt Q9H093); conditions: Compound concentration 1000.0 nM
[3] = target: Serine/threonine-protein kinase PRP4 homolog (Homo sapiens) (UniProt Q13523); conditions: Compound concentration 1000.0 nM
[4] = tested on: Receptor-type tyrosine-protein kinase FLT3 (Homo sapiens), P36888 [D835Y]; conditions: Compound concentration 1000.0 nM
[5] = target: Hormonally up-regulated neu tumor-associated kinase (Homo sapiens) (UniProt P57058); conditions: Compound concentration 1000.0 nM
Chain of Hormonally up-regulated neu tumor-associated kinase (Homo sapiens) (P57058 whole entry): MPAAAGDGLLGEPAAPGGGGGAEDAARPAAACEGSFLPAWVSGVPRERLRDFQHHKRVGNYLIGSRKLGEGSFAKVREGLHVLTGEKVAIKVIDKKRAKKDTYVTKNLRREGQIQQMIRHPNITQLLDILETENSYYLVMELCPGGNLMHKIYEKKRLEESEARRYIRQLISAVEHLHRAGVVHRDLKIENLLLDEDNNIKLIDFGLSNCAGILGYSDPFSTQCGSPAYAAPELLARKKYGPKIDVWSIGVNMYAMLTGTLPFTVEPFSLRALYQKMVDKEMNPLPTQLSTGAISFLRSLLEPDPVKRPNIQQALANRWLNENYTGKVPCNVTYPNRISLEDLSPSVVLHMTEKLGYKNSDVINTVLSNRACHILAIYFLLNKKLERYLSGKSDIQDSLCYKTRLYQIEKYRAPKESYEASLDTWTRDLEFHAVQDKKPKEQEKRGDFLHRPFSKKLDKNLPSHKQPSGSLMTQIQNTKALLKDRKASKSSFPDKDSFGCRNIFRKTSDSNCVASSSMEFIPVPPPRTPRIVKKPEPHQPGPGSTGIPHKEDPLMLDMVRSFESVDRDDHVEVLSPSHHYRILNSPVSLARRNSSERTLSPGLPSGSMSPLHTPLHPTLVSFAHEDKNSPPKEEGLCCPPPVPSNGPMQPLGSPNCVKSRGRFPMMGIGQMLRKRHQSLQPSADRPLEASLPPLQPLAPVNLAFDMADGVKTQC

[6] = target: Leucine-rich repeat serine/threonine-protein kinase 2 (Homo sapiens) (UniProt Q5S007); conditions: Compound concentration 1000.0 nM
[7] = target: Serine/threonine-protein kinase 38-like (Homo sapiens) (UniProt Q9Y2H1); conditions: Compound concentration 1000.0 nM
[8] = target: Alpha-1D adrenergic receptor (Homo sapiens, UniProt P25100); assay: GPCRScan assay: inhibition of Alpha1D; parameters: radioligand conc. used [nm] 0.3 – 1.0, parental cells stable
[9] = target: Ribosomal protein S6 kinase alpha-2 (Homo sapiens) (UniProt Q15349); conditions: Compound concentration 1000.0 nM
Chain of Ribosomal protein S6 kinase alpha-2 (Homo sapiens) (Q15349 whole entry): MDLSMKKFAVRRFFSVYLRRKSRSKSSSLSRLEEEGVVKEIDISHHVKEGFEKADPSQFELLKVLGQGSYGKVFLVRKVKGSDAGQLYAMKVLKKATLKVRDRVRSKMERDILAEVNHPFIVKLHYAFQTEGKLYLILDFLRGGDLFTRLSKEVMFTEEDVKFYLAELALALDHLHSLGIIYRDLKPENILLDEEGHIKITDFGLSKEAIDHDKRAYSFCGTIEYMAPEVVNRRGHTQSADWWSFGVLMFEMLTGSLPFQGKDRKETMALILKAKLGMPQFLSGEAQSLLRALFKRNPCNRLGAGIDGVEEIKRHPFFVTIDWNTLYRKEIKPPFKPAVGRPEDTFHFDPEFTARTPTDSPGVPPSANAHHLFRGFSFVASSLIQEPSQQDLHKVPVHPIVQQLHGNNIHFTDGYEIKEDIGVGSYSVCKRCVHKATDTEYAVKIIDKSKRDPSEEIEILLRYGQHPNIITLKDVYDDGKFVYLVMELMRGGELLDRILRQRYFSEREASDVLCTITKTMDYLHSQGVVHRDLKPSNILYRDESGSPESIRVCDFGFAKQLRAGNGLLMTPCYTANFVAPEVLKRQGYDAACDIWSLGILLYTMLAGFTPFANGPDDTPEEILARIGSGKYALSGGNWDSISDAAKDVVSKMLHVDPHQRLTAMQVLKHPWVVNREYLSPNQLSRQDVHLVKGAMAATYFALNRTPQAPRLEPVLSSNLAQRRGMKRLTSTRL

[10] = target: Cyclin-G-associated kinase (Homo sapiens) (UniProt O14976); conditions: Compound concentration 1000.0 nM
[11] = target: Tyrosine-protein kinase Yes (Homo sapiens) (UniProt P07947); conditions: Compound concentration 1000.0 nM
[12] = tested on: Epidermal growth factor receptor (Homo sapiens), P00533 [L861Q]; conditions: Compound concentration 1000.0 nM
[13] = target: Activin receptor type-1B (Homo sapiens) (UniProt P36896); conditions: Compound concentration 1000.0 nM
[14] = target: Peripheral plasma membrane protein CASK (Homo sapiens) (UniProt O14936); conditions: Compound concentration 1000.0 nM
[15] = target: Mitogen-activated protein kinase kinase kinase 10 (Homo sapiens) (UniProt Q02779); conditions: Compound concentration 1000.0 nM
[16] = target: Serine/threonine-protein kinase LATS1 (Homo sapiens) (UniProt O95835); conditions: Compound concentration 1000.0 nM
[17] = target: Epidermal growth factor receptor (Homo sapiens) (UniProt P00533); conditions: Compound concentration 1000.0 nM
[18] = target: Activin receptor type-1-like (Homo sapiens) (UniProt P37023); conditions: Compound concentration 1000.0 nM
[19] = target: Myosin-IIIa (Homo sapiens) (UniProt Q8NEV4); conditions: Compound concentration 1000.0 nM
Chain of Myosin-IIIa (Homo sapiens) (Q8NEV4 whole entry): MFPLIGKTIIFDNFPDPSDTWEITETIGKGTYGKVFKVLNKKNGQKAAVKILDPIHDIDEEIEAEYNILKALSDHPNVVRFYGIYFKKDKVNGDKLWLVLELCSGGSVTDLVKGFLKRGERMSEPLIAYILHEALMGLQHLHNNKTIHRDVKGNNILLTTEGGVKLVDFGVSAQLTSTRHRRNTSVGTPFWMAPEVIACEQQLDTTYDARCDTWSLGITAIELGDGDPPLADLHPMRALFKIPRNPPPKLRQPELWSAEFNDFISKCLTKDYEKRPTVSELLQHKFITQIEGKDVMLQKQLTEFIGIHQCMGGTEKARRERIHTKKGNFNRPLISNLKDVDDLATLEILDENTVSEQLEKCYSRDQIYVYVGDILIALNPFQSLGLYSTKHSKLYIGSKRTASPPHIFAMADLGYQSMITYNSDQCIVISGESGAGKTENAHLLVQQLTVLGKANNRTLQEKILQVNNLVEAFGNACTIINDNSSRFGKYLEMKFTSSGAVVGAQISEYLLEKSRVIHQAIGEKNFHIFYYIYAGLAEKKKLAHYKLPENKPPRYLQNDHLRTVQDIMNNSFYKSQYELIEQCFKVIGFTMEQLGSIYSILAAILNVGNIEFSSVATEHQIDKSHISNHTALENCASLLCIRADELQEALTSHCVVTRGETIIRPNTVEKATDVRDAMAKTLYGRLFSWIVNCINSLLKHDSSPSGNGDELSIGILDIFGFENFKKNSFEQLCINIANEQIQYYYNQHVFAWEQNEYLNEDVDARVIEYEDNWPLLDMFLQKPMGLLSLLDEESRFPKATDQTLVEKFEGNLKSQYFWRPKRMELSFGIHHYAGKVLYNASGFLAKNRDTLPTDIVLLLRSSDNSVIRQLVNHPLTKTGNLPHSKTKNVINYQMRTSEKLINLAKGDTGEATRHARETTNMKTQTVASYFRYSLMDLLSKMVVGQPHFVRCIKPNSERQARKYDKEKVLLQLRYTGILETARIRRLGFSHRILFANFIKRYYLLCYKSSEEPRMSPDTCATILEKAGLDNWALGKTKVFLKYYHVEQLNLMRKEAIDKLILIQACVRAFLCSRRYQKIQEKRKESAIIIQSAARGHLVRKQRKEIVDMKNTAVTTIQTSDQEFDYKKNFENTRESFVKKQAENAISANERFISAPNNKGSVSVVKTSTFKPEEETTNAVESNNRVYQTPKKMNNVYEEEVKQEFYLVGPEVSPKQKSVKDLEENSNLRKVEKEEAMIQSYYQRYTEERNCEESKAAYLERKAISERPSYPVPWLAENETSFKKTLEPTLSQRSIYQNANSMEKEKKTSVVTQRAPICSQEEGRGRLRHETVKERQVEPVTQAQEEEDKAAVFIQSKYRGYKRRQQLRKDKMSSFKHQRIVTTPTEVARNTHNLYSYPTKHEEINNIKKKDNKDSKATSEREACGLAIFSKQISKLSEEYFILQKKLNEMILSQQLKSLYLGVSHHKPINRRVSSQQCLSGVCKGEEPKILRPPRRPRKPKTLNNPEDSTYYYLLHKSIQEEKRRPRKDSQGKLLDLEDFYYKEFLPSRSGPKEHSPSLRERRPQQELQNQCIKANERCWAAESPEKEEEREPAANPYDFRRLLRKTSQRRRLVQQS

[20] = target: Serine/threonine-protein kinase PLK4 (Homo sapiens) (UniProt O00444); conditions: Compound concentration 1000.0 nM
Chain of Serine/threonine-protein kinase PLK4 (Homo sapiens) (O00444 whole entry): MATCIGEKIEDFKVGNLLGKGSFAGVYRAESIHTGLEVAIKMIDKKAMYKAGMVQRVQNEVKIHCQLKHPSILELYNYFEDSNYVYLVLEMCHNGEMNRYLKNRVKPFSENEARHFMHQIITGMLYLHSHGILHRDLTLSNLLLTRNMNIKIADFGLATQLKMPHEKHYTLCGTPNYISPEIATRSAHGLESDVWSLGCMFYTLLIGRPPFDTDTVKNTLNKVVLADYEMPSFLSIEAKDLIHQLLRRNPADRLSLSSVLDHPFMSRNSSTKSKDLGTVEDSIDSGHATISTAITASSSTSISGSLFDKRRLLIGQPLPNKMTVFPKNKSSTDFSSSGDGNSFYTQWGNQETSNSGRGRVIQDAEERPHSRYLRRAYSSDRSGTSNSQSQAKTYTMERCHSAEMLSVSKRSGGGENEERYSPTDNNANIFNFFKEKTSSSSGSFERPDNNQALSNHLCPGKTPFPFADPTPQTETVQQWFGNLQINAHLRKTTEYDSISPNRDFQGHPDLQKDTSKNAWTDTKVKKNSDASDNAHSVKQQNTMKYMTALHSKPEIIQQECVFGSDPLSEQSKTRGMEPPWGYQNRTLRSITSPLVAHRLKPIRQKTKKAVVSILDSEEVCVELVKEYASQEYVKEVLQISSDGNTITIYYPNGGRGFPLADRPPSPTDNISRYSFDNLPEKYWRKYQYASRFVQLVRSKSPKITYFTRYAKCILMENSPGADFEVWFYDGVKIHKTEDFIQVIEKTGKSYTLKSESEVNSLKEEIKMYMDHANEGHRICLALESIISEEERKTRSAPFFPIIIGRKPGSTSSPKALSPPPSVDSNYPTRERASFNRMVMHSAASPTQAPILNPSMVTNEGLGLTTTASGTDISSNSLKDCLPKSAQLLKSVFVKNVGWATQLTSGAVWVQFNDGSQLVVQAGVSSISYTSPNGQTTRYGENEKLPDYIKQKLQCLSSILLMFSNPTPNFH

[21] = target: Rho-associated protein kinase 2 (Homo sapiens) (UniProt O75116); conditions: Compound concentration 1000.0 nM
[22] = target: Mitogen-activated protein kinase kinase kinase 2 (Homo sapiens) (UniProt Q9Y2U5); conditions: Compound concentration 1000.0 nM
[23] = target: Ephrin type-B receptor 3 (Homo sapiens) (UniProt P54753); conditions: Compound concentration 1000.0 nM
[24] = target: Mast/stem cell growth factor receptor Kit (Homo sapiens) (UniProt P10721); conditions: Compound concentration 1000.0 nM
Chain of Mast/stem cell growth factor receptor Kit (Homo sapiens) (P10721 whole entry): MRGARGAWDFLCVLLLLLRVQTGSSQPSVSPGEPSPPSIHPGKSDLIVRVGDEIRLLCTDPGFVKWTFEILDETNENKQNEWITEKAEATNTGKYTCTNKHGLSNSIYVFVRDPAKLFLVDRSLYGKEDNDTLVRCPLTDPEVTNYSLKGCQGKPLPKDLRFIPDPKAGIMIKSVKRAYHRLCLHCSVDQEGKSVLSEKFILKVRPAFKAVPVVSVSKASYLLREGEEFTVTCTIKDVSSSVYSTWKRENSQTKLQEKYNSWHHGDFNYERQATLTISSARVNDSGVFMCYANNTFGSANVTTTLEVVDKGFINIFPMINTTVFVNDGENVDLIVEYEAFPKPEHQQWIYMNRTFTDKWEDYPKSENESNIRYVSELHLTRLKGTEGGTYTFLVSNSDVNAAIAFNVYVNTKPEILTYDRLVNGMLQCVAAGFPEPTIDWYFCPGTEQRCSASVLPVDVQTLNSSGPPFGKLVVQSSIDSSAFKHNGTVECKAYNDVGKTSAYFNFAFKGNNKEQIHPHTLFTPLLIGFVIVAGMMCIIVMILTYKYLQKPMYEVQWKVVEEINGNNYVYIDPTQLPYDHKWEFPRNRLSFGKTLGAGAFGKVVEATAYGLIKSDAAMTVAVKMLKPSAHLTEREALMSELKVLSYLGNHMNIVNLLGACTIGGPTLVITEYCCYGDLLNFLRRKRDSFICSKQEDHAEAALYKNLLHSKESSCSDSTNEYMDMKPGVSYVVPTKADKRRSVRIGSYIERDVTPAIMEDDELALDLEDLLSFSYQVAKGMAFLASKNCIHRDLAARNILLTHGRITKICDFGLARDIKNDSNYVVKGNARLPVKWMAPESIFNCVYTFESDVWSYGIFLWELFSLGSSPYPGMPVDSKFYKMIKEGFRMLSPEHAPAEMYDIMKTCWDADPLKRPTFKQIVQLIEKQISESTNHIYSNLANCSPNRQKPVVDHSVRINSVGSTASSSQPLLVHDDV

[25] = target: Tyrosine-protein kinase Mer (Homo sapiens) (UniProt Q12866); conditions: Compound concentration 1000.0 nM
[26] = tested on: Serine/threonine-protein kinase B-raf (Homo sapiens), P15056 [V600E]; conditions: Compound concentration 1000.0 nM
[27] = tested on: Proto-oncogene tyrosine-protein kinase receptor Ret (Homo sapiens), P07949 [V804L]; conditions: Compound concentration 1000.0 nM
[28] = target: Phosphatidylinositol 4,5-bisphosphate 3-kinase catalytic subunit gamma isoform (Homo sapiens) (UniProt P48736); conditions: Compound concentration 1000.0 nM
[29] = target: Ankyrin repeat and protein kinase domain-containing protein 1 (Homo sapiens) (UniProt Q8NFD2); conditions: Compound concentration 1000.0 nM
[30] = target: cAMP-dependent protein kinase catalytic subunit PRKX (Homo sapiens) (UniProt P51817); conditions: Compound concentration 1000.0 nM
[31] = target: RAC-alpha serine/threonine-protein kinase (Homo sapiens) (UniProt P31749); conditions: Compound concentration 1000.0 nM
[32] = target: TGF-beta receptor type-2 (Homo sapiens) (UniProt P37173); conditions: Compound concentration 1000.0 nM
[33] = target: Ephrin type-A receptor 3 (Homo sapiens) (UniProt P29320); conditions: Compound concentration 1000.0 nM
[34] = target: Serine/threonine-protein kinase Nek7 (Homo sapiens) (UniProt Q8TDX7); conditions: Compound concentration 1000.0 nM
[35] = target: Mitogen-activated protein kinase kinase kinase 13 (Homo sapiens) (UniProt O43283); conditions: Compound concentration 1000.0 nM
[36] = target: Serine/threonine-protein kinase tousled-like 2 (Homo sapiens) (UniProt Q86UE8); conditions: Compound concentration 1000.0 nM
[37] = tested on: Tyrosine-protein kinase ABL1 (Homo sapiens), P00519 [F317L]; conditions: Compound concentration 1000.0 nM
[38] = target: Mitotic checkpoint serine/threonine-protein kinase BUB1 (Homo sapiens) (UniProt O43683); conditions: Compound concentration 1000.0 nM
[39] = target: Mitogen-activated protein kinase 1 (Homo sapiens) (UniProt P28482); conditions: Compound concentration 1000.0 nM
[40] = target: 3-phosphoinositide-dependent protein kinase 1 (Homo sapiens) (UniProt O15530); conditions: Compound concentration 1000.0 nM
[41] = target: SRSF protein kinase 1 (Homo sapiens) (UniProt Q96SB4); conditions: Compound concentration 1000.0 nM
[42] = target: Phosphatidylinositol 4-kinase beta (Homo sapiens) (UniProt Q9UBF8); conditions: Compound concentration 1000.0 nM
[43] = target: Homeodomain-interacting protein kinase 4 (Homo sapiens) (UniProt Q8NE63); conditions: Compound concentration 1000.0 nM
[44] = target: Rhodopsin kinase GRK1 (Homo sapiens) (UniProt Q15835); conditions: Compound concentration 1000.0 nM
[45] = tested on: Tyrosine-protein kinase ABL1 (Homo sapiens), P00519 [E255K]; conditions: Compound concentration 1000.0 nM

CC(=O)N1CCC(c2ccc(C(=O)NC3=NCCN3)cc2C(F)(F)F)CC1 [BI 0054]
10 µM: Ki [8]
inactive: residual activity [1] 88% | residual activity [2] 90% | residual activity [3] 100% | residual activity [4] 98% | residual activity [5] 100% | residual activity [6] 100% | residual activity [7] 90% | residual activity [9] 100% | residual activity [10] 97% | residual activity [11] 100% | residual activity [12] 100% | residual activity [13] 100% | residual activity [14] 85% | residual activity [15] 100% | residual activity [16] 93% | residual activity [17] 100% | residual activity [18] 100% | residual activity [19] 100% | residual activity [20] 100% | residual activity [21] 73% | residual activity [22] 100% | residual activity [23] 93% | residual activity [24] 100% | residual activity [25] 100% | residual activity [26] 100% | residual activity [27] 100% | residual activity [28] 100% | residual activity [29] 100% | residual activity [30] 100% | residual activity [31] 100% | residual activity [32] 100% | residual activity [33] 95% | residual activity [34] 100% | residual activity [35] 100% | residual activity [36] 100% | residual activity [37] 95% | residual activity [38] 100% | residual activity [39] 100% | residual activity [40] 94% | residual activity [41] 100% | residual activity [42] 91% | residual activity [43] 100% | residual activity [44] 95% | residual activity [45] 82%

CC(=O)N1CCC(c2ccc(C(=O)NC(=N)N)cc2C(F)(F)F)CC1 [BI 9627]
10 µM: Ki [8]
inactive: residual activity [1] 100% | residual activity [2] 100% | residual activity [3] 78% | residual activity [4] 100% | residual activity [5] 100% | residual activity [6] 100% | residual activity [7] 99% | residual activity [9] 90% | residual activity [10] 100% | residual activity [11] 98% | residual activity [12] 91% | residual activity [13] 93% | residual activity [14] 100% | residual activity [15] 95% | residual activity [16] 72% | residual activity [17] 100% | residual activity [18] 100% | residual activity [19] 100% | residual activity [20] 100% | residual activity [21] 100% | residual activity [22] 100% | residual activity [23] 97% | residual activity [24] 95% | residual activity [25] 81% | residual activity [26] 100% | residual activity [27] 97% | residual activity [28] 100% | residual activity [29] 100% | residual activity [30] 100% | residual activity [31] 100% | residual activity [32] 100% | residual activity [33] 100% | residual activity [34] 100% | residual activity [35] 100% | residual activity [36] 100% | residual activity [37] 92% | residual activity [38] 85% | residual activity [39] 96% | residual activity [40] 100% | residual activity [41] 86% | residual activity [42] 100% | residual activity [43] 100% | residual activity [44] 98% | residual activity [45] 100%
